Reference: patent publication US20200345021A1, “METHOD AND SYSTEM FOR ENHANCING THE EFFICACY USING IONIZED/A[…] PEROXIDE IN REDUCING MICROBIAL POPULATIONS, METHOD OF USE THEREOF” (priority 2019, published 2020)
Values joined by “and” are separate entries in the source; they are usually repeats but may differ in a detail not shown here. Equal values may be shown once. Read-outs that look alike come from different tables or passages of the source. Marks after values point to notes of the source that are not given here.

Legend:
Listeria innocua = test: Effect of cold plasma activation on efficacy of ionized/aerosolized H2O2 against Listeria innocua (Study 2); type: cell-based
Source text: (§1) To minimize the risk of possible bacteria becoming airborne during treatments, attenuated and non-pathogenic bacteria were used in the study. Two strains of non-pathogenic S. Typhimurium (ATCC 53647 and 53648) and three strains of L. innocua (ATCC 33090, ATCC 51742 and ATCC BAA680) were obtained from American Type Culture Collection (ATCC) (Manassas, Va., USA). Further studies used E. coli O157:H7 (ATCC 700728), S. Typhimurium (ATCC 53647 and 53648), and L. innocua (ATCC 33090) obtained from American Type Culture Collection (ATCC) (Manassas, Va., USA) and maintained as a part of the culture collection at the USDA Eastern Regional Research Center (Wyndmoor, Pa. USA). The bacteria were made to be resistant to nalidixic acid by successive growth in Trypic Soy Broth (TSB) (Difco, Sparks, Md., USA) with increasing nalidixic acid concentrations. All strains were stored at −80° C. in 1 mL of TSB containing 10% glycerol. Working cultures of S. Typhimurium and L. innocua were maintained in 9 mL TSB (supplemented with 100 μg/mL nalidixic acid for S. Typhimurium) at 4° C. after incubating at 37° C. for […], respectively, and sub-cultured each time.
(§2) Each strain of S. Typhimurium and L. innocua was cultured in 9 mL TSB (supplemented with 100 μg/mL nalidixic acid for S. Typhimurium) and incubated at 37° C. for 40 h and 48 h, respectively, harvested by centrifugation at 4000×g for 10 min at 4° C., and resuspended in 9 mL sterile Buffered Peptone Water (BPW; Difco). The pellets were resuspended in BPW to form cell suspensions with a final concentration of 108˜10^9 CFU/mL. Subsequently, suspended pellets of two strains of Salmonella and three strains of L. innocua were combined to obtain two separate culture cocktails.
(§3) Grape tomatoes, granny smith apples, romaine lettuce and cantaloupes were purchased from local markets (Philadelphia, Pa., USA) and kept at 10° C. prior to use. Fruits and vegetables were removed from 10° C. refrigeration and equilibrated to ambient temperature before being inoculated. Romaine lettuce was divided into upper green leaf and midrib tissues. Six tomatoes, six pieces (2×2 cm) of apple skins, five pieces (3×3 cm) of Romaine lettuce upper leaves, five pieces (3 cm length) of Romaine lettuce midrib area and six pieces (2×2 cm) of cantaloupe rinds with 2×3 mm thickness of flesh were used for each treatment per replicate. Bach piece w as spot inoculated with 10 μL of Salmonella and L. innocua by depositing droplets with a micropipette. The inoculated samples were dried in a bio-hood for 1 h (for tomato surfaces, romaine lettuce, apple skins and cantaloupe rinds) or 2 h (for tomato stem scars) at ambient temperature.
(§4) Produce items were placed onto a sterile test tube rack with the inoculated area facing up and the rack with produce pieces were placed inside of a treatment chamber (12×12×24 inch).
(§5) Therefore, each kind of produce was treated with and without cold plasma ionized under the same optimized conditions.
(§6) After each treatment, the tomato stem scars and surfaces with the inoculated bacteria were removed using a pair of sterile scissors. Each type of produce item from the same treatment was combined (total weight: 1.51±0.29 g for tomato stem scars; 2.07±0.15 g for tomato surfaces; 6.37±0.92 g for apple skins; 1.62±0.34 g for Romaine lettuce upper leaves: 13.30±2.97 g for Romaine lettuce midrib tissues: 9.58±1.26 g for cantaloupe rinds) and transferred into an 80 mL filtered stomacher bag. After addition of 30 mL BBL buffered peptone water into the bag, the sample in the bag was homogenized using a mini blender (Mini Mix CC, Interscience laboratories Inc., Woburn, Mass., USA) for 2 min at a setting of 4. […] Tryptic Soy Agar with 200 μg/mL pyruvate acid and 100 μg/mL nalidixic acid (TSA-PN) and PALCAM Agars (Difco) were used for the enumeration of S. Typhimurium and L. innocua, respectively.

Salmonella Typhimurium = type: cell-based
Source text: as §1, §2, §3, §4, §5, §6

[1] = Cantaloupe rind, 30 s spray time + 30 min dwell
[2] = Romaine lettuce-midrib, 30 s spray time + 30 min dwell
[3] = Romaine lettuce-upper leaf, 30 s spray time + 30 min dwell
[4] = Tomato-stem scar, three cycles of 20 s spray time plus 20 min dwell time
[5] = Tomato-surface, 8 s spray time + 30 min dwell

In the case of `OO` [H2O2 − cold plasma, hydrogen peroxide], the “Reductions of Listeria innocua” value (Listeria innocua; [1]) is reported as 1.57 ± 0.37^y log CFU/piece, the “Populations of Listeria innocua” value (Listeria innocua; Cantaloupe rind, 30 s spray time + 30 min dwell, ND1: not detectable (detection limit 0.70 log CFU/piece)) is reported as 3.88 ± 0.37^b log CFU/piece and the “Reductions of Listeria innocua” value (Listeria innocua; Granny Smith apple, 8 s spray time + 30 min dwell) is reported as 2.69 ± 0.20^y log CFU/piece. For the same compound, the “Populations of Listeria innocua” value (Listeria innocua; Granny Smith apple, 8 s spray time + 30 min dwell, ND1: not detectable (detection limit 0.70 log CFU/piece)) was 2.90 ± 0.20^b log CFU/piece, the “Reductions of Listeria innocua” value (Listeria innocua; [2]) was 3.77 ± 0.35^y log CFU/piece and the “Populations of Listeria innocua” value (Listeria innocua; Romaine lettuce-midrib, 30 s spray time + 30 min dwell, ND2: not detectable (detection limit 0.76 log CFU/piece)) was 1.82 ± 0.35^b log CFU/piece. The “Reductions of Listeria innocua” value (Listeria innocua; Romaine lettuce-midrib, 30 s spray time + 30 min dwell, listed as hydrogen peroxide (H2O2) aerosols without cold plasma) was 3.77 log CFU/piece, the “Reductions of Listeria innocua” value (Listeria innocua; [3]) was 2.77 ± 0.34^y log CFU/piece and the “Populations of Listeria innocua” value (Listeria innocua; Romaine lettuce-upper leaf, 30 s spray time + 30 min dwell, ND2: not detectable (detection limit 0.76 log CFU/piece)) was 2.80 ± 0.34^b log CFU/piece. For the same compound, the “Populations of Listeria innocua” value (Listeria innocua; [4]) was 4.21 ± 0.60^b log CFU/piece, the “Reductions of Listeria innocua” value (Listeria innocua; [4]) was 1.35 ± 0.60^y log CFU/piece and the “Reductions of Listeria innocua” value (Listeria innocua; Tomato-stem scar, three cycles of 20 s spray time plus 20 min dwell time, listed as hydrogen peroxide (H2O2) aerosols without cold plasma) was 1.35 log CFU/piece. The “Reductions of Listeria innocua” value (Listeria innocua; [5]) was 2.74 ± 0.21^y log CFU/piece, the “Populations of Listeria innocua” value (Listeria innocua; Tomato-surface, 8 s spray time + 30 min dwell, ND1: not detectable (detection limit 0.70 log CFU/piece)) was 2.77 ± 0.21^b log CFU/piece and the “Populations of Salmonella Typhimurium” value (Salmonella Typhimurium; [1]) was 4.83 ± 0.36^b log CFU/piece. For the same compound, the “Reductions of Salmonella Typhimurium” value (Salmonella Typhimurium; [1]) was 1.54 ± 0.36^y log CFU/piece, the “Reductions of Salmonella Typhimurium” value (Salmonella Typhimurium; Granny Smith apples, 8 s spray time + 30 min dwell) was 2.08 ± 0.17^y log CFU/piece and the “Populations of Salmonella Typhimurium” value (Salmonella Typhimurium; Granny Smith apples, 8 s spray time + 30 min dwell, ND: not detectable (detection limit 0.70 log CFU/piece)) was 3.77 ± 0.17^b log CFU/piece. The “Reductions of Salmonella Typhimurium” value (Salmonella Typhimurium; Granny Smith apples, 8 s spray time + 30 min dwell, listed as hydrogen peroxide (H2O2) aerosols without cold plasma) was 2.08 log CFU/piece, the “Populations of Salmonella Typhimurium” value (Salmonella Typhimurium; [2]) was 4.16 ± 0.28^b log CFU/piece and the “Reductions of Salmonella Typhimurium” value (Salmonella Typhimurium; [2]) was 1.78 ± 0.28^y log CFU/piece. The “Populations of Salmonella Typhimurium” value (Salmonella Typhimurium; [3]) was 4.70 ± 0.23^b log CFU/piece, the “Reductions of Salmonella Typhimurium” value (Salmonella Typhimurium; [3]) was 1.72 ± 0.23^y log CFU/piece and the “Populations of Salmonella Typhimurium” value (Salmonella Typhimurium; [4]) was 4.40 ± 0.28^b log CFU/piece. The “Reductions of Salmonella Typhimurium” value (Salmonella Typhimurium; [4]) was 1.54 ± 0.28^y log CFU/piece, the “Reductions of Salmonella Typhimurium” value (Salmonella Typhimurium; [5]) was 3.17 ± 0.33^y log CFU/piece and the “Populations of Salmonella Typhimurium” value (Salmonella Typhimurium; Tomato-surface, 8 s spray time + 30 min dwell, ND: not detectable (detection limit 0.70 log CFU/piece)) was 2.46 ± 0.33^b log CFU/piece. The “Reductions of Salmonella Typhimurium” value (Salmonella Typhimurium; Tomato-surface, 8 s spray time + 30 min dwell, listed as hydrogen peroxide (H2O2) aerosols without cold plasma) was 3.17 log CFU/piece and the “Reductions of Salmonella, range over the fresh produce items” value (Salmonella Typhimurium; all tested produce items and surfaces, optimized conditions, listed as hydrogen peroxide (H2O2) aerosols without cold plasma) was 1.54-3.17 log CFU/piece and 1.53-3.17 log CFU/piece.
